Data published in publication PMC3221505, “Simple, Rapid and Validated LC Determination of Lopinavir in Rat Plasma and its Application in Pharmacokinetic Studies” (Scientia Pharmaceutica, 2011).

Key:
[1] = Pharmacokinetic study after intravenous bolus administration of LPV in rats; type: in vivo; conditions: male Wistar rats, 5 mg kg^−1, n = 6, plasma
Protocol: Formulation was administered through tail vein in male Wistar rats (n = 6), weighing 180 to 220 g, at a dose of 5 mg kg^−1 [35]. Blood samples were drawn from retro-orbital plexus of Wistar rats at 0.083, 0.167, 0.25, 0.5, 1, 2, 3, 4, 6, 8, 12 and 24 h post dose in microfuge tube pretreated with sodium citrate solution (3.8% w/v). A baseline blank plasma sample was drawn from each animal before drug administration. All samples were processed according to the procedure described earlier and analyzed using the validated HPLC method.

[2] = Post extraction stability of processed samples of LPV in rat plasma; type: physicochemical, Wistar rat; conditions: processed rat plasma QC samples kept in auto sampler rack, 24 h
Protocol: Processed samples were kept in the sample rack of auto sampler and samples were analyzed in triplicates every 6 h for 24 h period on the day of preparation. The percentage deviation from the mean concentrations observed at zero time was calculated.

[3] = Freeze-thaw stability of LPV in rat plasma; type: in vitro ADME, Wistar rat; conditions: rat plasma QC samples, end of three freeze-thaw cycles, frozen at −20 °C
Protocol: Total of four sets were prepared in triplicates and one set of the prepared concentrations was analyzed on the day of preparation (no freeze-thaw cycle) and the remaining three sets were frozen at −20 °C for 24 h. Frozen samples were thawed by keeping the sealed tubes at room temperature for at least 1 h. One set in triplicate was analyzed and the remaining two sets were kept at −20 °C for freezing and were analyzed after two and three freeze-thaw cycles.

Cc1cccc(C)c1OCC(=O)N[C@@H](Cc1ccccc1)[C@@H](O)C[C@H](Cc1ccccc1)NC(=O)[C@H](C(C)C)N1CCCNC1=O [LPV, (2S)-N-[(1S,3S,4S)-1-benzyl-4-{[(2,6-dimethyl-phenoxy)acetyl]amino}-3-hydroxy-5-phenylpentyl]-3-methyl-2-(2-oxotetrahydropyrimidin-1(2H)-yl)butanamide]
area under the first-moment curve (AUMC) [1]: 4403.07 ± 171.33 h^2 ng mL^−1
AUC ([1]; rat, read-out: area under the curve (AUC)): 3850 ± 264 ng·h/mL
C0 ([1]; rat, read-out: concentration at time zero (Co)): 3170 ± 290 ng/mL
half-life ([1]; rat, read-out: elimination half-life (t½) (converted)): 49.2 ± 1.8 min
MRT ([1]; rat, read-out: mean retention time (MRT)): 1.15 ± 0.05 h
clearance ([1]; rat, read-out: total plasma clearance (CLs) (converted)): 22.4 mL/min/kg
Vd ([1]; rat, read-out: volume of distribution (Vss)): 1.59 ± 0.146 L/kg
maximum deviation from the zero time concentration (post extraction stability) [2]: less than 2.0%
deviation from the zero time concentration (freeze-thaw stability) [3]: less than 8.0%
